Results taken from publication PMC8222254, “Self-assembly of an anion receptor with metal-dependent kinase inhibition and potent in vitro anti-cancer properties” (Nature Communications, 2021).
pIC50: −log10 of the molar value. Several values for one entry are separate records, joined by “and”; a condition that tells them apart may be missing. Equal entries are not always repeated. Where two headings read alike, the source gives them in different places.

Key:
Assay in all cases: Chemosensitivity, 96 h continuous exposure, MTT assay
Type in all cases: cell-based, human
DLD-1 = tested on: DLD-1
Excerpt: (§1) All cell lines were purchased from and maintained as monolayers as described by the American Type Culture Collection with the exception of the p53^+/+ and p53^−/− isogenic clones of HCT116 human colorectal adenocarcinoma cells which were a kind gift from Professor Bert Vogelstein[54]. GBM1 cells were established from a primary GBM tumour by Heiko Wurdak and colleagues[32],[33]. Non-cancerous adult brain neural progenitor (NP1) cells were derived from a patient undergoing surgery to treat epilepsy[32],[33]. Cell culture and growth media for NP1 and GBM1 cells were as described[32],[33]. The response of cells following a continuous 96-h exposure to test compounds and platinates was determined using the MTT assay. Potency was recorded as the IC50 and the selectivity index (SI) was defined as the ratio of IC50 values for non-cancer to cancer cell lines with values >1 representing selectivity for cancer cells as opposed to non-cancer cells.
(§2) All cell lines used were maintained at low passage in antibiotic-free media. HT29, DLD-1, HCT116 p53^+/+ and HCT116 p53^−/− are all colorectal adenocarcinoma cell lines derived from different individuals and harbour different combinations of oncogenic lesions (except for the HCT116 isogenic cancer cell clones that are genetically identical except for p53 status). PSN-1, BxPC-3 and MiaPaCa2 are pancreatic carcinoma cell lines and A549 and H460 are lung carcinoma cell lines. HT29, DLD-1, PSN-1, BxPC-3, A549 and H460 cell lines were cultured in RPMI-1640 growth media (Sigma) containing 2 mM L-glutamine, 1 mM sodium pyruvate and 10% foetal bovine serum (FBS). HCT116 (p53^+/+ and p53^−/−) and MiaPaCa2 cell lines were cultured in Dulbecco’s Modified Eagle’s Medium (Sigma), 2 mM L-glutamine and 10% FBS. The ARPE-19 retinal epithelial non-cancer cell line was cultured in DMEM/F12 media (Gibco), 2 mM L-glutamine, 1 mM sodium pyruvate and 10% FBS. The MCF10A non-cancerous human breast epithelial cell line was cultured in Minimal Essential Media Eagle (Sigma), 2 mM L-glutamine, 1 mM sodium pyruvate, 10% FBS and 1x non-essential amino acids (NEAA). NP1 and GBM1 cells were cultured on plasticware coated with poly-L-ornithine (5 µg/ml) and laminin (2.4 µg/ml)[32],[33]. NP1 cells were grown in DMEM/F12 media (Gibco) supplemented with 5% FBS, 20 ng/ml hFGF, 20 ng/ml rhEGF, 0.5x B-27 supplement (Gibco), 0.5x N-2 supplement (Gibco) and 1x GLUTAMAX (Gibco). GBM1 cells were cultured in Neurobasal media (Gibco) supplemented with 40 ng/ml hFGF, 40 ng/ml rhEGF, 0.5x B-27 supplement (Gibco) and 0.5x N-2 supplement (Gibco).
(§3) [L2(Metal)3]^6+ and all the other self-assembling complexes were freshly formed by adding DMSO to individual components and mixing together by pipetting. These were then further diluted in cell culture media such that the final DMSO concentration that cells were exposed to was 0.2% (vehicle control). Cisplatin, oxaliplatin and carboplatin were dissolved in phosphate buffered saline. Cell lines were seeded into 96 well plates at 2 × 10^3 cells per well and incubated overnight at 37 °C. GBM1 cancer stem-like cells were seeded at 3 × 10^3 cells per well and NP1 neural progenitors were seeded at 1.5 × 10^3 cells per well. The following day, media was removed and replaced with fresh media containing test compounds at a range of concentrations. Cells were incubated with test compounds for a further 96 h after which the media was removed and replaced with fresh media (200 μl/well). MTT was added (20 μl at 5 mg/ml) and cells were incubated for a further 4 h. Media and MTT were removed and formazan crystals were dissolved in 150 μl of DMSO and the absorbance of the resulting solution determined at 540 nm. Dose response curves were constructed, and the concentration required to reduce cell growth by 50% (IC50) determined.

MCF10A non-cancer cells = tested on: MCF10A non-cancer cells
Excerpt: as §1, §2, §3

MiaPaCa2 = tested on: MiaPaCa2
Excerpt: as §1, §2, §3

HCT116 p53+/+ = conditions: for Selectivity index (ARPE19): IC50 ARPE-19 / IC50 HCT116 p53+/+
Excerpt: as §1, §2, §3

A549 = tested on: A549
Excerpt: as §1, §2, §3

BxPC3 = tested on: BxPC3
Excerpt: as §1, §2, §3

HCT116 p53-/- = conditions: for Selectivity index (ARPE19): IC50 ARPE-19 / IC50 HCT116 p53-/-
Excerpt: as §1, §2, §3

[1] = HCT116 p53+/+, read-out: Mean IC50 values
[2] = HCT116 p53-/-, read-out: Mean IC50 values

O=P([O-])([O-])Oc1ccccc1.[Cu+2].[Cu+2].[Cu+2].c1ccc(-c2csc(NCCN(CCNc3nc(-c4ccccn4)cs3)CCNc3nc(-c4ccccn4)cs3)n2)nc1.c1ccc(-c2csc(NCCN(CCNc3nc(-c4ccccn4)cs3)CCNc3nc(-c4ccccn4)cs3)n2)nc1 [[L2Cu3(O3POPh)]4+]
pIC50 (DLD-1; DLD-1, mean of replicates, read-out: Mean IC50): 6.41 | pIC50 (DLD-1; DLD-1, read-out: Mean IC50 values): 6.41 | Selectivity index (ARPE19) (DLD-1; IC50 ARPE-19 / IC50 DLD-1): 293.98 | Selectivity index (MCF10A) (DLD-1; IC50 MCF10A / IC50 DLD-1): 131.32 | Relative potency (+ anion to no anion), Ratio + anion:no anion (DLD-1; ratio of IC50, DLD-1): 2.97 | Selectivity indices relative to ARPE-19, Ratio + anion:no anion (DLD-1; ratio of SI (ARPE-19), DLD-1): 0.737 | Selectivity indices relative to MCF10A, Ratio + anion:no anion (DLD-1; ratio of SI (MCF 10A), DLD-1): 0.359 | pIC50 (MCF10A non-cancer cells; MCF10A non-cancer, read-out: Mean IC50 values): 4.29 | pIC50 (MCF10A non-cancer cells; MCF10A, mean of replicates, read-out: Mean IC50): 4.29 | pIC50 (MCF10A non-cancer cells; MCF10A, single replicate, read-out: IC50 values for each replicate): 4.22 and 4.31 and 4.26 and 4.38 | Relative potency (+ anion to no anion), Ratio + anion:no anion (MCF10A non-cancer cells; ratio of IC50, MCF10A): 1.07 | Selectivity index (ARPE19) (MiaPaCa2; IC50 ARPE-19 / IC50 MiaPaCa2): 2.44 | Selectivity index (MCF10A) (MiaPaCa2; IC50 MCF10A / IC50 MiaPaCa2): 1.09 | pIC50 (MiaPaCa2; MiaPaCa2, mean of replicates, read-out: Mean IC50): 4.33 | pIC50 (MiaPaCa2; MiaPaCa2, read-out: Mean IC50 values): 4.33 | pIC50 (MiaPaCa2; MiaPaCa2, single replicate, read-out: IC50 values for each replicate): 4.30 and 4.35 and 4.33 | Relative potency (+ anion to no anion), Ratio + anion:no anion (MiaPaCa2; ratio of IC50, MiaPaCa2): 4.00 | Selectivity indices relative to ARPE-19, Ratio + anion:no anion (MiaPaCa2; ratio of SI (ARPE-19), MiaPaCa2): 0.548 | Selectivity indices relative to MCF10A, Ratio + anion:no anion (MiaPaCa2; ratio of SI (MCF 10A), MiaPaCa2): 0.267 | pIC50 (HCT116 p53+/+; HCT116 p53+/+, mean of replicates, read-out: Mean IC50): 6.78 | pIC50 (HCT116 p53+/+; [1]): 6.78 | pIC50 (HCT116 p53+/+; HCT116 p53+/+, single replicate, read-out: IC50 values for each replicate): 6.77 and 6.78 and 6.72 and 6.85 | Selectivity index (ARPE19) (HCT116 p53+/+): 690.06 | Selectivity index (MCF10A) (HCT116 p53+/+; IC50 MCF10A / IC50 HCT116 p53+/+): 308.25 | Relative potency (+ anion to no anion), Ratio + anion:no anion (HCT116 p53+/+; ratio of IC50, HCT116 p53+/+): 0.34 | Selectivity indices relative to ARPE-19, Ratio + anion:no anion (HCT116 p53+/+; ratio of SI (ARPE-19), HCT116 p53+/+): 6.503 | Selectivity indices relative to MCF10A, Ratio + anion:no anion (HCT116 p53+/+; ratio of SI (MCF 10A), HCT116 p53+/+): 3.168 | pIC50 (A549; A549, mean of replicates, read-out: Mean IC50): 5.77 | pIC50 (A549; A549, read-out: Mean IC50 values): 5.77 | pIC50 (A549; A549, single replicate, read-out: IC50 values for each replicate): 5.74 and 5.80 and 5.76 | Selectivity index (ARPE19) (A549; IC50 ARPE-19 / IC50 A549): 67.55 | Selectivity index (MCF10A) (A549; IC50 MCF10A / IC50 A549): 30.17 | Relative potency (+ anion to no anion), Ratio + anion:no anion (A549; ratio of IC50, A549): 7.32 | Selectivity indices relative to ARPE-19, Ratio + anion:no anion (A549; ratio of SI (ARPE-19), A549): 0.299 | Selectivity indices relative to MCF10A, Ratio + anion:no anion (A549; ratio of SI (MCF 10A), A549): 0.146 | pIC50 (BxPC3; BXPC3, mean of replicates, read-out: Mean IC50): 4.29 | pIC50 (BxPC3; BXPC3, read-out: Mean IC50 values): 4.40 | pIC50 (BxPC3; BXPC3, single replicate, read-out: IC50 values for each replicate): 4.23 and 4.39 and 4.32 and 4.28 | Selectivity index (ARPE19) (BxPC3; IC50 ARPE-19 / IC50 BXPC3): 2.92 | Selectivity index (MCF10A) (BxPC3; IC50 MCF10A / IC50 BXPC3): 1.30 | Relative potency (+ anion to no anion), Ratio + anion:no anion (BxPC3; ratio of IC50, BXPC3): 134.82 | Selectivity indices relative to ARPE-19, Ratio + anion:no anion (BxPC3; ratio of SI (ARPE-19), BXPC3): 0.016 | Selectivity indices relative to MCF10A, Ratio + anion:no anion (BxPC3; ratio of SI (MCF 10A), BXPC3): 0.008 | pIC50 (HCT116 p53-/-; HCT116 p53-/-, mean of replicates, read-out: Mean IC50): 7.09 | pIC50 (HCT116 p53-/-; [2]): 7.09 | pIC50 (HCT116 p53-/-; HCT116 p53-/-, single replicate, read-out: IC50 values for each replicate): 7.10 and 7.07 | Selectivity index (ARPE19) (HCT116 p53-/-): 1405.37 | Selectivity index (MCF10A) (HCT116 p53-/-; IC50 MCF10A / IC50 HCT116 p53-/-): 627.77 | Relative potency (+ anion to no anion), Ratio + anion:no anion (HCT116 p53-/-; ratio of IC50, HCT116 p53-/-): 0.60 | Selectivity indices relative to ARPE-19, Ratio + anion:no anion (HCT116 p53-/-; ratio of SI (ARPE-19), HCT116 p53-/-): 3.658 | Selectivity indices relative to MCF10A, Ratio + anion:no anion (HCT116 p53-/-; ratio of SI (MCF 10A), HCT116 p53-/-): 1.782

[Mn+2].[Mn+2].[Mn+2].c1ccc(-c2csc(NCCN(CCNc3nc(-c4ccccn4)cs3)CCNc3nc(-c4ccccn4)cs3)n2)nc1.c1ccc(-c2csc(NCCN(CCNc3nc(-c4ccccn4)cs3)CCNc3nc(-c4ccccn4)cs3)n2)nc1 [[L2Mn3]6+]
pIC50 (HCT116 p53+/+; HCT116 p53+/+, 96 h, MTT, individual run, read-out: IC50 values for each replicate): 5.75 and 6.28 and 5.85 and 5.84 | pIC50 (HCT116 p53+/+; HCT116 p53+/+, 96 h, MTT, mean of at least 3 independent experiments, read-out: Mean IC50): 5.88 | pIC50 (HCT116 p53+/+; [1]): 5.88 | Selectivity index (ARPE19) (HCT116 p53+/+): 2.17 | preferential selectivity towards cancer cells (HCT116 p53+/+; cancer cells vs non-cancer cells (Fig. 5f)): ~ 2 fold | SI (ARPE19) (HCT116 p53+/+; mean IC50 ARPE-19 / mean IC50 HCT116 p53+/+): 2.173 | pIC50 (HCT116 p53-/-; HCT116 p53-/-, 96 h, MTT, individual run, read-out: IC50 values for each replicate): 5.81 and 6.11 and 5.87 and 5.89 | pIC50 (HCT116 p53-/-; HCT116 p53-/-, 96 h, MTT, mean of at least 3 independent experiments, read-out: Mean IC50): 5.90 | pIC50 (HCT116 p53-/-; [2]): 5.90 | Selectivity index (ARPE19) (HCT116 p53-/-): 2.30 | SI (ARPE19) (HCT116 p53-/-; mean IC50 ARPE-19 / mean IC50 HCT116 p53-/-): 2.295
